This test has as its system male dd-mice. Put plainly: anti-apomorphine activity in mice (inhibition of motor activity after apomorphine, animex). Format: in vivo. The settings on record: Mus musculus, po, read-out: Anti-apomorphine activity ED50 (dose which inhibited the motor activity by 50% as compared with the control). The procedure: Groups of 5 male dd-mice (20-25 g body weight) each were used. Apomorphine hydrochloride (0.5 mg/kg) was subcutaneously administered 60 minutes after oral administration of test compound. Immediately after the apomorphine treatment, motor activity was determined for 20 minutes by animex. For the control groups, 0.5% methylcellulose solution was administered instead of test compound. The ED50, a dose which inhibited the motor activity by 50% as compared with the control, was determined.

Where [1] appears, read: male dd-mice, p.o., 60 min before apomorphine hydrochloride 0.5 mg/kg s.c., motor activity for 20 min by animex.

Like-named read-outs stand apart in the source and are kept apart here.

In the case of `OC1(c2ccc(Cl)cc2)CCN(CC2=NOC(c3ccc(F)cc3)C2)CC1` (stereo not shown) [C, 1-[5-(4-Fluorophenyl)-4,5-dihydroisoxazol-3-ylmethyl]-4-(4-chlorophenyl)-4-hydroxypiperidine], the median effective dose (ED50) came out at 3.4 mg/kg.

With `O=c1[nH]c2ccccc2n1C1CCN(CC2=NOC(c3ccc(F)cc3)C2)CC1` (stereo not shown) [A, 1-[5-(4-Fluorophenyl)-4,5-dihydroisoxazol-3-ylmethyl]-4-(2-oxo-1-benzimidazolinyl)piperidine], under setting [1], the ED50 worked out at 1.7 mg/kg.

With `O=c1[nH]c2cc(F)ccc2n1C1CCN(CC2=NOC(c3ccc(F)cc3)C2)CC1` (stereo not shown) [B, 1-[5-(4-Fluorophenyl)-4,5-dihydroisoxazol-3-ylmethyl]-4-(5-fluoro-2-oxo-1-benzimidazolinyl)piperidine], the 50% effective dose (ED50) under setting [1] worked out at 2.1 mg/kg.

On to `CN1CCN(C2=Nc3cc(Cl)ccc3Nc3ccccc32)CC1` [Clozapine, reference compound], for which the ED50 under setting [1] is 10 mg/kg.

In general, ED50 refers to the dose that gives a 50% effect, or the effect in half of the subjects.

The record behind these values is patent US4397853A, “Isoxazole derivatives” (Yoshitomi Pharmaceutical Industries Ltd., priority 1979, dated 1983).
